Experimental data taken from ChEMBL document CHEMBL5143744, “Discovery of Tenapanor: A First-in-Class Minimally Systemic Inhibitor of Intestinal Na+/H+ Exchanger Isoform 3” (ACS Med Chem Lett, 2022).
Activity calls are given as the source filed them. No cut-off for these calls is given here.

Assays:
[1] = In vivo inhibition of NEH3 in Sprague-Dawley rat assessed as sodium excretion in urine at 3 mg/kg, po administered via gavage measured after 16 hrs by ion chromatography relative to control; parameters: scale not given: the % may be the effect or the level left
[2] = In vivo inhibition of NEH3 in Sprague-Dawley rat assessed as fecal form score at 3 mg/kg, po administered via gavage measured after 6 hrs; assay type: functional
[3] = In vivo inhibition of NEH3 in Sprague-Dawley rat assessed as fecal water content at 3 mg/kg, po administered via gavage measured after 6 hrs; assay type: functional; parameters: scale not given: the % may be the effect or the level left
[4] = target: T1, Sodium/hydrogen exchanger 3 (Homo sapiens, UniProt P48764); assay: Inhibition of human NHE3 expressed in opossum kidney cells assessed as reduction in Na-HEPES buffer-mediated pH recovery in presence of NEH1 inhibitor ethyl isopropyl amiloride by BCECF-AM dye based fluorescence assay; assay type: cell-based, Kidney epithelial cell
T1 sequence (P48764 whole entry): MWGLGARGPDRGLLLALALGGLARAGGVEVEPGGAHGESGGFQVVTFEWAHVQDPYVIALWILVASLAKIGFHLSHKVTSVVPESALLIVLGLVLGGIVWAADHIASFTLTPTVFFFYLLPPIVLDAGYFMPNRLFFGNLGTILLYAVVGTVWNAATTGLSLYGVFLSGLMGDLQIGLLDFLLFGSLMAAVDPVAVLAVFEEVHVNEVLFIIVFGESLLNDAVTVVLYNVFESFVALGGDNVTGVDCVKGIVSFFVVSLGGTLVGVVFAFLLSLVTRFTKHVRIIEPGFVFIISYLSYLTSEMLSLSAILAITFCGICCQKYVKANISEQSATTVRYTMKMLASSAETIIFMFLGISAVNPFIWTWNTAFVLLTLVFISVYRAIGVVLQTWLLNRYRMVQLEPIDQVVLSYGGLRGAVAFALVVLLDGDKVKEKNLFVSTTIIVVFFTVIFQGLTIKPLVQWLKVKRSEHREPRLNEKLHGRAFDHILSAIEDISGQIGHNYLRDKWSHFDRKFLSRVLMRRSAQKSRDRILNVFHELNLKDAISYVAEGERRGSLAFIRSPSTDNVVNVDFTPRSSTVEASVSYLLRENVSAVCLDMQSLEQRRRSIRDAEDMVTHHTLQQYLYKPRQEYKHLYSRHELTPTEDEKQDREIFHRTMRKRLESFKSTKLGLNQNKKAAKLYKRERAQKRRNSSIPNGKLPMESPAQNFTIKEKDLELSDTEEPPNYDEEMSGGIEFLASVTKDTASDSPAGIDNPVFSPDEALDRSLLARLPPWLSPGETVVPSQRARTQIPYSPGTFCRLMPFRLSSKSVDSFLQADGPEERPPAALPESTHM

[5] = target: Sodium/hydrogen exchanger 3 (Rattus norvegicus, UniProt P26433); assay: Inhibition of rat NHE3 expressed in opossum kidney cells assessed as reduction in Na-HEPES buffer-mediated pH recovery in presence of NEH1 inhibitor ethyl isopropyl amiloride by BCECF-AM dye based fluorescence assay; assay type: cell-based, Kidney epithelial cell
Chain of Sodium/hydrogen exchanger 3 (Rattus norvegicus, UniProt P26433) (P26433 whole entry): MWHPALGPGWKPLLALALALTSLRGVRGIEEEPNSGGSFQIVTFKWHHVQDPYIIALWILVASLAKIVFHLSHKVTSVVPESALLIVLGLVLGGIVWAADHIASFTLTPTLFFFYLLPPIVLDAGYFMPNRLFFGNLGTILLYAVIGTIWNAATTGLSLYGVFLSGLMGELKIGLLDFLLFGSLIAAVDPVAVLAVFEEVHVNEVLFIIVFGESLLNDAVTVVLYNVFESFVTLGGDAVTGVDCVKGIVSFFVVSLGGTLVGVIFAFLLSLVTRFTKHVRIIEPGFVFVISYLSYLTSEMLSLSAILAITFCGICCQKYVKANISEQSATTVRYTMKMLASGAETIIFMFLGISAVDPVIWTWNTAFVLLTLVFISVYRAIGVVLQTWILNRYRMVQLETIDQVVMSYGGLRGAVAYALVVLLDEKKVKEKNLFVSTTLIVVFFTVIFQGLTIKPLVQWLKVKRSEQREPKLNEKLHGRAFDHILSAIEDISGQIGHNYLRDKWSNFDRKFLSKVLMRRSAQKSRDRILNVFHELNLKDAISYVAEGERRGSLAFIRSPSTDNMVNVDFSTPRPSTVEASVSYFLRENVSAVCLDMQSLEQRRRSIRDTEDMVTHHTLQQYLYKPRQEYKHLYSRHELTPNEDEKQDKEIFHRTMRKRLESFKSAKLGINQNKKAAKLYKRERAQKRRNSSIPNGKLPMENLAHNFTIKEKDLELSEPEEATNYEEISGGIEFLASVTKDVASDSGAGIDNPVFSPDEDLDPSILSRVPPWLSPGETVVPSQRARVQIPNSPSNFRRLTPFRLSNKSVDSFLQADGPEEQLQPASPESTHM

[6] = Apparent permeability in MDCK cells at 10 uM measured after 60 mins by LC-MS/MS analysis; assay type: ADME, cell-based, Canis lupus familiaris; settings: dog, 1 h
[7] = Oral bioavailability in Sprague-Dawley rat at 11 mg/kg administered via gavage by LC-MS/MS analysis; assay type: ADME, organism-based; settings: in vivo
[8] = AUC in Sprague-Dawley rat at 11 mg/kg, po administered via gavage by LC-MS/MS analysis; settings: in vivo
[9] = Cmax in Sprague-Dawley rat at 11 mg/kg, po administered via gavage by LC-MS/MS analysis; assay type: ADME, organism-based; parameters: dose 11 mg/kg, route po; settings: in vivo
[10] = Drug metabolism in Sprague-Dawley rat at 30 mg/kg, po administered via gavage by LC-MS/MS analysis; assay type: ADME, organism-based; settings: in vivo
[11] = Drug metabolism in Sprague-Dawley rat feces at 3 mg/kg, po administered via gavage measured after 64 hrs by LC-MS/MS analysis; assay type: ADME, organism-based; settings: in vivo
hERG (KCNH2) = hERG (KCNH2) (Homo sapiens, UniProt Q12809); assay: Inhibition of human ERG at 10 uM relative to control; assay type: toxicity
Chain of hERG (KCNH2) (Q12809 whole entry): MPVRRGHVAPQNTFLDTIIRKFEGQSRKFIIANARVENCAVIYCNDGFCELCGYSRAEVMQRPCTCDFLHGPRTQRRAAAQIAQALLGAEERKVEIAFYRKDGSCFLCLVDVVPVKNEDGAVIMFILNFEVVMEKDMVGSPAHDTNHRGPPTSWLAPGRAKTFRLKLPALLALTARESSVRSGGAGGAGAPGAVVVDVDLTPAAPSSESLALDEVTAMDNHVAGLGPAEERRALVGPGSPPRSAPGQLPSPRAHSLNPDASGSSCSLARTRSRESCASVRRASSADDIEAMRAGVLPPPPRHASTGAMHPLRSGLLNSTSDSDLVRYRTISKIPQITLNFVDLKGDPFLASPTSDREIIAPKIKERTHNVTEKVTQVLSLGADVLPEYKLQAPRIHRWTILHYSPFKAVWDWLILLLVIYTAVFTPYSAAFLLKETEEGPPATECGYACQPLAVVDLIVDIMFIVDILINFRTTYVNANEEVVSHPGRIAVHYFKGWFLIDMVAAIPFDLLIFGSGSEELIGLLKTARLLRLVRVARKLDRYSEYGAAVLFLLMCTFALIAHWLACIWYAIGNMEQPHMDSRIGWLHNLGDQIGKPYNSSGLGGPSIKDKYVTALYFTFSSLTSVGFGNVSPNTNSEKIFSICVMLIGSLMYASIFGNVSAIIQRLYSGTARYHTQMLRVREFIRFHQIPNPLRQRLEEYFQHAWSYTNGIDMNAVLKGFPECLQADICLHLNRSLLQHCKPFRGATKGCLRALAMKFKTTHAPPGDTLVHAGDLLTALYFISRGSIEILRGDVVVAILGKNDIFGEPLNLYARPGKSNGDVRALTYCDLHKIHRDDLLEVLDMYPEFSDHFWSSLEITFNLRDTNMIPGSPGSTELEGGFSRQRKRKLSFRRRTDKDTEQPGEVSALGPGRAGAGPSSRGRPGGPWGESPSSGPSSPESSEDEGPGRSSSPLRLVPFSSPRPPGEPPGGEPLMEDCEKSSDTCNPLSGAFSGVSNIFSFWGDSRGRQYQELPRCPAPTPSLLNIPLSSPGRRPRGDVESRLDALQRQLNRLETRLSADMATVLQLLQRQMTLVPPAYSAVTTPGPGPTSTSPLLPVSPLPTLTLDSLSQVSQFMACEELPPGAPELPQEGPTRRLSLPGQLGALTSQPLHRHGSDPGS

Rattus norvegicus = assay: In vivo inhibition of NEH3 in Sprague-Dawley rat assessed as reduction in sodium excretion in urine at 0.1 to 3 mg/kg, po administered via gavage measured after 16 hrs by ion chromatography; assay type: functional, organism-based; settings: dose 0.1-3 mg/kg
[12] = In vivo inhibition of NEH3 in Sprague-Dawley rat assessed as increase in fecal water content at 0.1 to 3 mg/kg, po administered via gavage measured after 6 hrs; assay type: functional; parameters: scale not given: the % may be the effect or the level left; settings: dose 0.1-3 mg/kg
[13] = Cmax in Sprague-Dawley rat at 30 mg/kg, po administered via gavage by LC-MS/MS analysis; assay type: ADME, organism-based; parameters: dose 30 mg/kg, route po; settings: Sprague-Dawley, in vivo, read-out: Cmax
[14] = Drug recovery in Sprague-Dawley rat feces at 3 mg/kg, po administered via gavage measured after 64 hrs by LC-MS/MS analysis; assay type: ADME, organism-based; settings: faeces, read-out: Drug recovery

CN1Cc2c(Cl)cc(Cl)cc2C(c2ccc(S(=O)(=O)NCCOCCOCCNC(=O)Nc3ccc(NC(=O)NCCOCCOCCNS(=O)(=O)c4ccc(C5CN(C)Cc6c(Cl)cc(Cl)cc65)cc4)cc3)cc2)C1 (racemic)
Activity [1]: 29%
Activity [2]: 3
Activity [3]: 58%

CN1Cc2c(Cl)cc(Cl)cc2C(c2cccc(S(=O)(=O)NCC(=O)O)c2)C1 (racemic)
IC50 [4]: 100 nM
IC50 [5]: 100 nM

CN1Cc2c(Cl)cc(Cl)cc2C(c2cccc(S(=O)(=O)NCCCP(=O)(O)O)c2)C1 (racemic)
IC50 [4]: 5010 nM
IC50 [5]: 63.1 nM

CN1Cc2c(Cl)cc(Cl)cc2C(c2cccc(NC(=O)[C@H](O)[C@@H](O)[C@H](O)[C@H](O)CO)c2)C1 (mixture of isomers)
IC50 [4]: 50.1 nM
IC50 [5]: 39.8 nM

CN1Cc2c(Cl)cc(Cl)cc2C(c2cccc(S(N)(=O)=O)c2)C1 (racemic)
IC50 [4]: 631 nM
Papp [6]: >= 10 10^-6 cm/s
F [7]: 98%
AUC [8]: 522 ng·h/mL
Cmax [9]: 159 ng/mL

CN1Cc2c(Cl)cc(Cl)cc2[C@H](c2cccc(S(=O)(=O)NCCOCCOCCOCCNC(=O)NCCOCCOCCOCCNS(=O)(=O)c3cccc([C@@H]4CN(C)Cc5c(Cl)cc(Cl)cc54)c3)c2)C1
Drug metabolism [10]: Metabolite_Notdetected
Drug metabolism [11]: Metabolite_Detected
inhibition at 10 µM (hERG (KCNH2)): < 50%
inhibition (Rattus norvegicus): Active
Activity [12]: 10%
Cmax [13]: < 5 ng/mL
dose excreted at 64 h [14]: 82%

CN1Cc2c(Cl)cc(Cl)cc2C(c2cccc(S(=O)(=O)NCCCS(=O)(=O)O)c2)C1 (racemic)
IC50 [4]: 1580 nM
IC50 [5]: 50.1 nM

CN1Cc2c(Cl)cc(Cl)cc2C(c2ccc(S(=O)(=O)NCCOCCOCCNC(=O)CCC(=O)NCCOCCOCCNS(=O)(=O)c3ccc(C4CN(C)Cc5c(Cl)cc(Cl)cc54)cc3)cc2)C1 (racemic)
Activity [1]: 23%
Activity [2]: 3.5
Activity [3]: 60%

CN1Cc2c(Cl)cc(Cl)cc2C(c2cccc(S(=O)(=O)NCCOCCOCCNC(=O)NCCOCCOCCNS(=O)(=O)c3cccc(C4CN(C)Cc5c(Cl)cc(Cl)cc54)c3)c2)C1 (stereo not given)
IC50 [4]: 2000 nM
Activity [1]: 100%
Activity [2]: 1
Activity [3]: 50%
AUC [8]: < 19 ng·h/mL
Cmax [9]: < 5 ng/mL

CN1Cc2c(Cl)cc(Cl)cc2C(c2cccc(S(=O)(=O)NCCOCCOCCNC(=O)NCCCCNC(=O)NCCOCCOCCNS(=O)(=O)c3cccc(C4CN(C)Cc5c(Cl)cc(Cl)cc54)c3)c2)C1 (racemic)
Activity [1]: 22%
Activity [2]: 4.5
Activity [3]: 64%
IC50 [5]: 3.16 nM

CN1Cc2c(Cl)cc(Cl)cc2C(c2cccc(S(=O)(=O)NCCOCCOCCOCCNC(=O)Nc3ccc(NC(=O)NCCOCCOCCOCCNS(=O)(=O)c4cccc(C5CN(C)Cc6c(Cl)cc(Cl)cc65)c4)cc3)c2)C1 (racemic)
Activity [1]: 42%
Activity [2]: 2
Activity [3]: 54%
IC50 [5]: 6310 nM
